Reference: USRE46942E1, “4-piperidinyl compounds for use as tankyrase inhibitors” (NOVARTIS AG, priority 2011, dated 2018)

Key:
[1] = tested on: Axin2 protein in colorectal cell line SW480; assay: Cellular ELISA assay for stabilizing the Axin2 protein; assay type: cell-based; conditions: Homo sapiens; SW480 cells, 24 hrs; read-out: Axin AC50
Description: Compound activity in stabilizing the Axin2 protein was measured by Sandwich Enzyme-Linked Immuosorbent (ELISA) assay in the colorectal cell line SW480. 30,000 SW480 cells were seeded per well in 96-well plate and incubated overnight prior to compound treatment. […] Cells were then washed with 100 μL of cold Phosphate Buffer Saline (PBS), and lysed in 125 μl of cold 1× lysis buffer (Cell Signaling Technology, 9803) supplemented with Protease inhibitor (Roche, 11836170) and Phosphatase inhibitors (Sigma, P2850, P5726). […] After blocking, plates were then washed three times with 300 μl/well of wash solution. 100 μL of prepared SW480 cell lysate was then added to each well and incubated at room temperature for 2 hours while shaking gently. After washing, 100 μL of Biotinylated anti-Axin2 antibody (CST, 2151) was added to each well and incubated room temperature for 2 hours. 100 μL of Streptavidin-HRP (R&D systems, DY998) diluted 1:200 in 1% BSA/PBS was then added in each well and incubate for 30 mins at R/T in the dark. Signal was detected by Chemiluminescence (Pierce SuperSignal ELISA Femto #3704), and measured on PerkinElmer Wallac 1420 plate reader.

[2] = tested on: Wnt ligand-induced signaling in HEK293 cells; assay: Wnt-responsive Super-TOp-Flash (STF) luciferase reporter gene assay; assay type: cell-based; conditions: Homo sapiens, Wnt3A condition medium
Description: Compound activity in inhibiting Wnt ligand-induced signaling was measured using a Wnt-responsive Super-TOp-Flash (STF) luciferase reporter gene assay in HEK293 cells. On day 1 of the assay, cells were plated at a density of 8000 cells per well of 384-well plate in 25 μl medium containing 5% fetal bovine serum (FBS). […] On the third day, the luciferase activity was measured by the Bright-Glo™ Luciferase Assay System following manufacture's protocol (Promega, E2620).

[3] = tested on: Non-small lung cancer ABC-1 cells; assay: Cellular proliferation assay (CellTiter-Glo); assay type: cell-based; conditions: Homo sapiens, 72 h, 3 days of compound treatment
Description: Non-small lung cancer ABC-1 cells were plated at 5000 cells per well in 96-well plates and treated with 8 serial compound dilutions starting from 10 μM as the highest concentration. Viable cells were measured after 3 days of compound treatment using the CellTiter-Glo assay (Promega, G7570). Assay was performed following the manufacture protocol.

[4] = tested on: Herpes Simplex Virus (HSV); conditions: cited from earlier work

IC50 [3] [nM] | Compound | AC50 [1] [nM] | IC50 [2] [nM] | viral growth [4]
2000 ± 900 | COc1ccc2c(c1)CC1(CCN([C@@H]3CCN(Cc4nc5c(c(=O)[nH]4)COCC5)C3=O)CC1)C2=O [Example 17, (R)-2-((3-(5-methoxy-1-oxo-1,3-dihydrospiro[indene-2,4′-piperidine]-1′-yl)-2-oxopyrrolidin-1-yl)methyl)-7,8-dihydro-3H-pyrano[4,3-d]pyrimidin-4(5H)-one] | 1790 ± 140 | 396 ± 10 | 
 | Oc1nc(-c2ccc(C(F)(F)F)cc2)nc2c1CSCC2 [XAV939] |  |  | decreased viral growth
1610 | COc1ccc(C(=O)C2CCN([C@H]3CCN(CC(=O)Nc4nnc5n4CCS5)C3=O)CC2)cc1 [Example 33, N-(5,6-dihydrothiazolo[2,3-c][1,2,4]triazol-3-yl)-2-((S)-3-(4-(4-methoxybenzoyl)piperidin-1-yl)-2-oxopyrrolidin-1-yl)acetamide] | 1340 ± 110 |  | 
49 | COc1ccc(C(=O)C2CCN([C@@H]3CCN(CC(=O)Nc4nnc5n4CCS5)C3=O)CC2)cc1 (single isomer, unassigned) [Example 34] | 78 ± 6 |  | 
82 | COc1ccc2c(c1)CC1(CCN([C@H]3CCN(Cc4nc5c(c(=O)[nH]4)COCC5)C3=O)CC1)C2=O [Example 16, (S)-2-((3-(5-methoxy-1-oxo-1,3-dihydrospiro[indene-2,4′-piperidine]-1′-yl)-2-oxopyrrolidin-1-yl)methyl)-7,8-dihydro-3H-pyrano[4,3-d]pyrimidin-4(5H)-one] | 7 ± 1 | 1.7 ± 0.2 | 
